Broadly, the Ki is a dissociation constant, usually derived from enzyme kinetics or from competition with a known ligand.

For the assay, the target named is T1, GABA A receptor α5β3γ2 (Homo sapiens, UniProt P18507+P31644).
T1 construct: expressed in transfected cells; host or cells: HEK293 (transiently transfected; membranes)
The experiment in a line: [3H]flumazenil competition binding, membranes of HEK293 cells expressing human GABA A α5β3γ2. The following applies: human α5β3γ2 in HEK293 (transiently transfected); 0.5 nM [3H]flumazenil; 1 hour at 4° C.; means of two determinations; read-out: Ki[nM]hα5. The procedure: The affinity of compounds at GABA A receptor subtypes was measured by competition for [3H]flumazenil (85 Ci/mmol; Roche) binding to HEK293 cells expressing rat (stably transfected) or human (transiently transfected) receptors of composition α1β3γ2, α2β3γ2, α3β3γ2 and α5β3γ2.
Cell pellets were suspended in Krebs-tris buffer (4.8 mM KCl, 1.2 mM CaCl2, 1.2 mM MgCl2, 120 mM NaCl, 15 mM Tris; pH 7.5; binding assay buffer), homogenized by polytron for ca. 20 sec on ice and centrifuged for 60 min at 4° C. (50000 g; Sorvall, rotor: SM24=20000 rpm). The cell pellets were resuspended in Krebs-tris buffer and homogenized by polytron for ca. 15 sec on ice. Protein was measured (Bradford method, Bio-Rad) and aliquots of 1 mL were prepared and stored at −80° C.
Radioligand binding assays were carried out in a volume of […] (96-well plates) which contained […] of cell membranes, [3H]flumazenil at a concentration of 1 nM for α1, α2, α3 subunits and 0.5 nM for α5 subunits and the test compound in the range of […]. Nonspecific binding was defined by 10^−5 M diazepam and typically represented less than 5% of the total binding. Assays were incubated to equilibrium for 1 hour at 4° C. and harvested onto GF/C uni-filters (Packard) by filtration using a Packard harvester and washing with ice-cold wash buffer 50 mM Tris; pH 7.5). After drying, filter-retained radioactivity was detected by liquid scintillation counting. Ki values were calculated using Excel-Fit (Microsoft) and are the means of two determinations.
In the case of `Cc1onc(-c2ccccc2)c1-c1cn2cc(NC(=O)C3CCCC3)ccc2n1` [Example 59, Cyclopentanecarboxylic acid [2-(5-methyl-3-phenyl-isoxazol-4-yl)-imidazo[1,2-a]pyridin-6-yl]-amide], the Ki came out at 54.7 nM.

With `Cc1onc(-c2ccccc2)c1-c1cn2ccc(C(=O)NCc3ccco3)cc2n1` [Example 23, 2-(5-Methyl-3-phenyl-isoxazol-4-yl)-imidazo[1,2-a]pyridine-7-carboxylic acid (furan-2-ylmethyl)-amide], the Ki stood at 183 nM.

For `Brc1ccc2nc(-c3c(-c4ccccc4)noc3C3CC3)cn2c1` [Example 69, 6-Bromo-2-(5-cyclopropyl-3-phenyl-isoxazol-4-yl)-imidazo[1,2-a]pyridine], the Ki stood at 7.13 nM.

In the case of `Cc1onc(-c2ccccc2)c1-c1cn2ccc(C(=O)NC3CCOCC3)cc2n1` [Example 17, 2-(5-Methyl-3-phenyl-isoxazol-4-yl)-imidazo[1,2-a]pyridine-7-carboxylic acid (tetrahydro-pyran-4-yl)-amide], the Ki is 96 nM.

`Cc1onc(-c2ccccc2)c1-c1cn2cccc(Cl)c2n1` [Example 3, 8-Chloro-2-(5-methyl-3-phenyl-isoxazol-4-yl)-imidazo[1,2-a]pyridine]: the Ki is 126 nM.

For the compound `Cc1onc(-c2ccccc2)c1-c1cn2cc(C(=O)NC3CCC3)ccc2n1` [Example 34, 2-(5-Methyl-3-phenyl-isoxazol-4-yl)-imidazo[1,2-a]pyridine-6-carboxylic acid cyclobutylamide], the Ki turned out to be 19.8 nM.

For the compound `Cc1onc(-c2ccccc2)c1-c1cn2ccc(N)cc2n1` [Example 46, 2-(5-Methyl-3-phenyl-isoxazol-4-yl)-imidazo[1,2-a]pyridin-7-ylamine], the Ki was 90.3 nM.

Take `Cc1onc(-c2ccccc2)c1-c1cn2ccc(C(=O)NCCN3CCOCC3)cc2n1` [Example 18, 2-(5-Methyl-3-phenyl-isoxazol-4-yl)-imidazo[1,2-a]pyridine-7-carboxylic acid (2-morpholin-4-yl-ethyl)-amide]: the Ki is 159 nM.

As to `COC(=O)c1ccn2cc(-c3c(-c4ccccc4)noc3C)nc2c1` [Example 10, 2-(5-Methyl-3-phenyl-isoxazol-4-yl)-imidazo[1,2-a]pyridine-7-carboxylic acid methyl ester], the Ki was 150 nM.

Consider `Cc1onc(-c2ccccc2)c1-c1cn2ccc(C(=O)NCCO)cc2n1` [Example 16, 2-(5-Methyl-3-phenyl-isoxazol-4-yl)-imidazo[1,2-a]pyridine-7-carboxylic acid (2-hydroxy-ethyl)-amide], for which the Ki turned out to be 114 nM.

`Cc1onc(-c2ccccc2)c1-c1cn2ccc(NC(=O)c3cccnc3)cc2n1` [Example 51, N-[2-(5-Methyl-3-phenyl-isoxazol-4-yl)-imidazo[1,2-a]pyridin-7-yl]-nicotinamide]: the Ki was found to be 76.2 nM.

Take `Cc1onc(-c2ccccc2)c1-c1cn2ccc(C(=O)NCCCN3CCOCC3)cc2n1` [Example 19, 2-(5-Methyl-3-phenyl-isoxazol-4-yl)-imidazo[1,2-a]pyridine-7-carboxylic acid (3-morpholin-4-yl-propyl)-amide]: the Ki came out at 124 nM.

`C#Cc1ccc2nc(-c3c(-c4ccccc4)noc3C)cn2c1` [Example 53, 6-Ethynyl-2-(5-methyl-3-phenyl-isoxazol-4-yl)-imidazo[1,2-a]pyridine]: the Ki is 164 nM.

Consider `Cc1onc(-c2ccccc2)c1-c1cn2cc(N3CCC3=O)ccc2n1` [Example 62, 1-[2-(5-Methyl-3-phenyl-isoxazol-4-yl)-imidazo[1,2-a]pyridin-6-yl]-azetidin-2-one], for which the Ki was 27 nM.

Turning to `Cc1onc(-c2ccccc2)c1-c1cn2ccc(C(=O)NC3CCCC3)cc2n1` [Example 15, 2-(5-Methyl-3-phenyl-isoxazol-4-yl)-imidazo[1,2-a]pyridine-7-carboxylic acid cyclopentylamide], the Ki is 200 nM.

Turning to `c1ccc(-c2noc(C3CC3)c2-c2cn3ccccc3n2)cc1` [Example 68, 2-(5-Cyclopropyl-3-phenyl-isoxazol-4-yl)-imidazo[1,2-a]pyridine], the Ki is 5.5 nM.

`Cc1onc(-c2ccccc2)c1-c1cn2cc(C(=O)NC3CCOCC3)ccc2n1` [Example 37, 2-(5-Methyl-3-phenyl-isoxazol-4-yl)-imidazo[1,2-a]pyridine-6-carboxylic acid (tetrahydro-pyran-4-yl)-amide]: the Ki was 6.8 nM.

On to `Cc1onc(-c2ccccc2)c1-c1cn2cc(C(=O)NCc3cccnc3)ccc2n1` [Example 41, 2-(5-Methyl-3-phenyl-isoxazol-4-yl)-imidazo[1,2-a]pyridine-6-carboxylic acid (pyridin-3-ylmethyl)-amide], for which the Ki was found to be 41.2 nM.

On to `Cc1onc(-c2ccccc2)c1-c1cn2cc(NC(=O)CC3CC3)ccc2n1` [Example 55, 2-Cyclopropyl-N-[2-(5-methyl-3-phenyl-isoxazol-4-yl)-imidazo[1,2-a]pyridin-6-yl]-acetamide], for which the Ki is 38.4 nM.

With `Cc1onc(-c2ccccc2)c1-c1cn2cc(Br)ccc2n1` [Example 27, 6-Bromo-2-(5-methyl-3-phenyl-isoxazol-4-yl)-imidazo[1,2-a]pyridine], the Ki stood at 121 nM.

For the compound `Cc1onc(-c2ccccc2)c1-c1cn2ccc(C(=O)NC3CC3)cc2n1` [Example 13, 2-(5-Methyl-3-phenyl-isoxazol-4-yl)-imidazo[1,2-a]pyridine-7-carboxylic acid cyclopropylamide], the Ki was 87.4 nM.

For the compound `Cc1onc(-c2ccccc2)c1-c1cn2ccc(NC(=O)C3CC3)cc2n1` [Example 48, Cyclopropanecarboxylic acid [2-(5-methyl-3-phenyl-isoxazol-4-yl)-imidazo[1,2-a]pyridin-7-yl]-amide], the Ki came out at 79.4 nM.

Regarding `Cc1onc(-c2ccccc2)c1-c1cn2ccc(NC(=O)Cc3cccnc3)cc2n1` [Example 47, N-[2-(5-Methyl-3-phenyl-isoxazol-4-yl)-imidazo[1,2-a]pyridin-7-yl]-2-pyridin-3-yl-acetamide], the Ki is 50.7 nM.

`Cc1onc(-c2ccccc2)c1-c1cn2cc(Cl)ccc2n1` [Example 26, 6-Chloro-2-(5-methyl-3-phenyl-isoxazol-4-yl)-imidazo[1,2-a]pyridine]: the inhibition constant Ki came to 110 nM.

`C#CCNC(=O)c1ccn2cc(-c3c(-c4ccccc4)noc3C)nc2c1` [Example 12, 2-(5-Methyl-3-phenyl-isoxazol-4-yl)-imidazo[1,2-a]pyridine-7-carboxylic acid prop-2-ynylamide]: the Ki was 72.3 nM.

As to `Cc1onc(-c2ccccc2)c1-c1cn2ccc(NC(=O)C3CCCC3)cc2n1` [Example 50, Cyclopentanecarboxylic acid [2-(5-methyl-3-phenyl-isoxazol-4-yl)-imidazo[1,2-a]pyridin-7-yl]-amide], the Ki amounted to 85.9 nM.

Regarding `Cc1onc(-c2ccccc2)c1-c1cn2cc(-n3cccc3)ccc2n1` [Example 64, 2-(5-Methyl-3-phenyl-isoxazol-4-yl)-6-pyrrol-1-yl-imidazo[1,2-a]pyridine], the Ki was determined as 73.2 nM.

With `Cc1onc(-c2ccccc2)c1-c1cn2cc(C#N)ccc2n1` [Example 28, 2-(5-Methyl-3-phenyl-isoxazol-4-yl)-imidazo[1,2-a]pyridine-6-carbonitrile], the Ki amounted to 173 nM.

As to `Cc1onc(-c2ccccc2)c1-c1cn2c(-n3ccnc3)cccc2n1` [Example 67, 5-Imidazol-1-yl-2-(5-methyl-3-phenyl-isoxazol-4-yl)-imidazo[1,2-a]pyridine], the Ki turned out to be 13.4 nM.

As to `Cc1onc(-c2ccccc2)c1C(=O)COc1cccn2cc(-c3c(-c4ccccc4)noc3C)nc12` [Example 7, 1-(5-Methyl-3-phenyl-isoxazol-4-yl)-2-[2-(5-methyl-3-phenyl-isoxazol-4-yl)-imidazo[1,2-a]pyridin-8-yloxy]-ethanone], the Ki was found to be 126 nM.

With `COC(=O)c1ccc2nc(-c3c(-c4ccccc4)noc3C)cn2c1` [Example 29, 2-(5-Methyl-3-phenyl-isoxazol-4-yl)-imidazo[1,2-a]pyridine-6-carboxylic acid methyl ester], the inhibition constant (Ki) is 117 nM.

For the compound `Cc1onc(-c2ccccc2)c1-c1cn2ccccc2n1` [Example 1, 2-(5-Methyl-3-phenyl-isoxazol-4-yl)-imidazo[1,2-a]pyridine], the inhibition constant Ki was 167 nM.

For the compound `C#CCNC(=O)c1ccc2nc(-c3c(-c4ccccc4)noc3C)cn2c1` [Example 32, 2-(5-Methyl-3-phenyl-isoxazol-4-yl)-imidazo[1,2-a]pyridine-6-carboxylic acid prop-2-ynylamide], the Ki worked out at 44.5 nM.

Regarding `Cc1onc(-c2ccccc2)c1-c1cn2cc(C(=O)NCC3CC3)ccc2n1` [Example 31, 2-(5-Methyl-3-phenyl-isoxazol-4-yl)-imidazo[1,2-a]pyridine-6-carboxylic acid cyclopropylmethyl-amide], the Ki came out at 23.9 nM.

Turning to `Cc1onc(-c2ccccc2)c1-c1cn2ccc(C(=O)NC3CCC3)cc2n1` [Example 14, 2-(5-Methyl-3-phenyl-isoxazol-4-yl)-imidazo[1,2-a]pyridine-7-carboxylic acid cyclobutylamide], the Ki was 168 nM.

(Values after patent US7585874B2, “Aryl-isoxazol-4-yl-imidazo[1,2-a]pyridine derivatives” (Hoffmann-La Roche Inc., priority 2006, dated 2009).)
